For one data set, the system named is rabbit lymphocytes. Put plainly: Cap formation on lymphocytes treated with fluorescent antibody (membrane mobility). It is filed as cell-based. The method, then: Cap formation was followed on rabbit lymphocytes preincubated for various periods of time with one of the compounds, then treated with fluorescent antibody. At least 20 minutes preincubation with the aqueous dispersion of agent A2 C were required to produce a change in the observed rate from that of the control and between 1 and 2 h incubation was required for maximum response. A 1-h period was utilized in most experiments.
FIG. 2 illustrates the rate of cap formation in lymphocytes treated with A2 C. In each of these experiments rabbit blood was anticoagulated with heparin (200 I.U./cm^3) and diluted with NaCl-phosphate buffer, pH 7.3 (137 mM NaCl-1.8 mM KH2 PO4 -8.2 mM Na2 HPO4) to 40% of original volume. Diluted blood was layered over sodium metrizoate (Nyegaard, Oslo, Norway)-Ficoll (Pharmacia, Uppsala, Sweden) mixture (containing 6.3% Ficoll and 10% sodium metrizoate), and centrifuged for 30 min. at 400 g at 25° C. Cells collected from the interphase contained over 80% lymphocytes. Cells were centrifuged, washed 3 times in buffer containing albumin and resuspended in the same or A2 C buffer. (A2 C was suspended in buffer (with Vortex) and albumin added). Final concentrations: lymphocytes 10^7 cells/cm^3.A2 C 0.02-0.2 μl/cm^3, 0.2% albumin, 5 mM glucose. Usual sample volume: 0.2 cm^3. The cell suspension was incubated at 22° or 24° C for 60 min. […] Expt I: 0.1 1 A 2 C per cm^3; (log concn -3.7); temp. 22 C. Expt II: 0.02 and 0.2 A2 C per cm^3; temp. 24° C. Expt III: 0.2 A2 C per cm^3; temp. 24° C.

The test system of the next data set is lymphocytes. The experiment in a line: Viability/cytotoxicity of lymphocytes, dye-exclusion test with trypan blue. It is filed as cell-based. To be noted: 60 minutes incubation, FIG. 1. The method, then:
The viability of the cells thus incubated was evaluated by the dye-exclusion test, using trypan blue.

In the next data set the test system is hen red blood cells. The experiment in a line: Fusion of hen red blood cells. Type of data set: cell-based. Particulars: 0.125 to 0.5 μl/cc of cell suspension, 37° C. The method, then:
(§1) Blood from the brachial vein of adult hens was mixed with heparin (as anticoagulant), centrifuged and the buffy coat removed. The erythrocytes were washed twice with 150 mM NaCl and once with buffer containing 76 mM sodium acetate, 70 mM NaCl, 1 mM CaCl2 and 100 mg/cc Dextran (MW 70,000) Pharmacia, Uppsala, Sweden (pH 5.7). The buffer is similar to but simpler than that used in a similar procedure by Lucy et al. The cells were resuspended in the same buffer and mixed with an equal volume of a suspension of the mobility agent A2 C dispersed in 150 mM NaCl by sonication. […] The final concentrations of A2 C used ranged between 0.06μl to 0.5 μl/cc containing 2-3 × 10^8 cells, 0.5 mM CaCl2, 38 mM sodium acetate, 110 mM NaCl and dextran (50 mg/cc). Cell suspensions were incubated at the desired temperature, mixed gently every 5 - 15 minutes and aliquots removed at intervals for viewing and photography at room temperature.

Another data set concerns neurotransmitter release. The experiment in a line: Neurotransmitter release from cells. Type of data set: cell-based. The text has this: Many intracellular agents are released from cells at rates which are below that desirable for optimum bilogical activity. […] For example, the use of the membrane mobility agents of the invention on brain tissue would lead to more efficient response to pharmacologically-active compounds and stimuli (such as electrical stimuli) on such brain tissue.

In a further data set the test system is mastocytoma. The experiment in a line: Agglutination of mastocytoma cells by wheat germ agglutinin and cap formation. Type of data set: cell-based. The text has this:
Some malignant cells, like mastocytoma, agglutinate in the presence of wheat germ agglutinin.

Data set [1] is described as follows: Retained activity of sonicated suspension. Type of data set: physicochemical. To be noted: dispersed in 150 mM NaCl by sonication, ca. 2 min. The method, then:
as §1

In another data set the test system is glutathione. Particulars: within cells; cited from earlier work.

Structures are written as SMILES.

As for `CCCCCCCCC1CC1CCCCCCCC(=O)OCCOCCOC` (stereo not shown) [A2 C, 2-(2-methoxy)-ethoxyethyl 8-(2-n-octylcyclopropyl octanoate], the “rate of cap formation in treated cells, increase over controls” value with rabbit lymphocytes (0.02-0.2 μl/cm^3, 60 min incubation at 22° or 24° C, FIG. 2) is reported as at most 50%. In the data set on rabbit lymphocytes (FIG. 2), the “effect of inherent "high" or "low" capacity for cap formation on the effects of the agent” value is given as “does not alter the effects produced by the mobility agent” and the “initial state of treated cells, extrapolation to zero cap formation time” value is “might be initially more "prepared" to form caps than the control cells”. Moreover, the “preincubation time required to produce a change in the observed rate of cap formation from that of control” value with rabbit lymphocytes (aqueous dispersion of agent, rabbit lymphocytes) is reported as “At least 20 minutes”. Moreover, the “cytotoxicity on lymphocytes relative to concentration affecting mobility” value with lymphocytes is recorded as “toxic at concentrations considerably above that at which maximum effect on mobility was observed”. Moreover, in the data set on hen red blood cells, the “extent of erythrocytes eventually involved in fusion” value was “most of the erythrocytes”; the “fusion of erythrocytes, degree of fusion” value was “increasing degrees of fusion, starting with binucleated, trinucleated and tetranucleated cells and proceeding to multi-nucleated cells”; the “rounding and swelling of the cells” value was “rounding and swelling of the cells”. Also, in the data set with neurotransmitter release, the neurotransmitter release result is “augmented by a small factor”. For the same molecule, the “cap formation on mastocytoma cells” value in the data set with mastocytoma was “cause caps to form”. Moreover, in the data set with mastocytoma (wheat germ agglutinin), the extent of agglutination result is “diminish the extent of agglutination”. Also, the “activity of sonicated suspension over time” value in data set [1] is given as “remains active for several hours”.

For `CCCCCCCCC1CC1CCCCCCCCOCCOCCOC` (stereo not shown) [A2 CE, 2-(2-methoxy)-ethoxyethyl 8-(2-n-octylcyclopropyl)-n-octyl ether], the “effect on cap formation / effectiveness as membrane mobility agent” value in the data set with rabbit lymphocytes (standard incubation period, FIGS. 3 and 4) is recorded as “less than the ester A1 C in effect”.

Take `CCCCCCCCCCCCCCCCCC(=O)OCCOCCOC` [A2 S, 2-(2-methoxy)-ethoxyethyl octadecanoate, reference compound]: the “membrane mobility activity (active/inactive)” value in the data set with rabbit lymphocytes (classification of compounds of Table I) is “inactive”.

On to `CCCCCCCCC1CC1CCCCCCCC(=O)OCCOCCOCCOC` (stereo not shown) [A3 C, 2-[2-(2-methoxy)-ethoxy]ethoxyethyl 8-(2-n-octycyclopropyl)-octanoate], for which the “cytotoxicity on lymphocytes relative to concentration affecting mobility” value with lymphocytes is listed as “toxicity with amounts close to that at which an effect on mobility was seen”.

As for `CN1CCN(C(=O)N=NC(=O)N2CCN(C)CC2)CC1` [DIP, diazene dicarboxylic acid bis(N'-methylpiperazide)], the “oxidation of intracellular glutathione” value with glutathione was “oxidizes the glutathione within cells to glutathione disulfide”.

The values above are taken from patent publication US4001428A, “Cyclopropane derivatives and use thereof as cell membrane mobility agents” (Polymer Sciences Corporation, priority 1974, dated 1977).
